The IC50 is the concentration that gives 50% inhibition.

Structures are written as SMILES. Marks after values point to notes of the source that are not given here.

This is an account of results in publication PMC8989696, “Characterization of furathiocarb metabolism in in-vitro human liver microsomes and recombinant cytochrome P450 enzymes” (Toxicology Reports, 2022).

For data set [1], the system named is UDP-glucuronosyl transferase (UGT). In words: Incubation with human hepatic homogenate fortified with UDP-glucuronic acid (phase II metabolites). The following applies: data not illustrated. Format: in vitro ADME.
The conditions of data set [2]: 7 cases of acute fatalities, cited from earlier work.
Data set [3] deals with T1, CYP2C9 (Homo sapiens, UniProt P11712).
T1 construct: from tissue; host or cells: pooled human liver microsomes (n = 10 donors)
T1 sequence (P11712 whole entry): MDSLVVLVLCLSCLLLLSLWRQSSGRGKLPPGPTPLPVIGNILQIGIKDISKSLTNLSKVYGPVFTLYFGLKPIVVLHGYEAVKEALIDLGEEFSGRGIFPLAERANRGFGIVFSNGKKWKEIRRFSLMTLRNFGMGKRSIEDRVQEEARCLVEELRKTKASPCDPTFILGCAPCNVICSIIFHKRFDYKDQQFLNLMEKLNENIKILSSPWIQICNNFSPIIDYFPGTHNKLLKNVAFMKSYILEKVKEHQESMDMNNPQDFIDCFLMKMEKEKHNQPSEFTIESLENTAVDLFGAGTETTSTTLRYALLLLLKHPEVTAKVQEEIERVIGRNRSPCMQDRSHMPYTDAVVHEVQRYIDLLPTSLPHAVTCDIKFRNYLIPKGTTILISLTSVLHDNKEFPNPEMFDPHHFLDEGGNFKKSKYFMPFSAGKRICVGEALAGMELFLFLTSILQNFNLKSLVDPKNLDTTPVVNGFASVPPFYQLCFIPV
In words: N-in-one CYP inhibition assay, pooled human hepatic microsomes, CYP2C9 (OH-TOL). Format: in vitro ADME. The method, then: N-in-one (“cocktail”) assay for measuring major CYP activities simultaneously, [55], [56] was employed to investigate human CYP-furathiocarb inhibitory interactions in pooled human hepatic microsomes. Furathiocarb (ﬁnal concentrations in the incubation mixture were 1, 5, 25, 50, and 100 µM) was added to the incubation mixture. The N-in-one was used earlier for the study of pesticide interactions and the details of the incubations with furathiocarb are described in Supplementary materials.
(§1) The kinetic parameters Vmax and Km were calculated by nonlinear regression. Bivariate linear Pearson’s correlation coefﬁcients (r2) were calculated between metabolite formations and model activities in the livers. GraphPad Prism 9 Software (Inc., San Diego, CA) Prism 9.0.0 (San Diego, CA) was used for kinetic parameters and correlation coefﬁcients analysis. The IC50 values were determined by linear regression analysis using OriginPro 2020 (MicroCal Software, Inc., Northampton, MA.
N-in-one assay was performed to investigate human CYP-furathiocarb inhibitory interactions. Furathiocarb (ﬁnal concentrations in the incubation mixture were 1, 5, 25, 50, and 100 µM) was added to the incubation mixture.
The N-in-one assay, analytical method and authentic standards have been described previously (Abass and Pelkonen 2013; Tolonen et al. 2007; Turpeinen et al. 2005). […]

A short description of data set [4]: Correlation of furathiocarb metabolite formation with model CYP substrate activities in ten human hepatic microsomes. It counts as in vitro ADME. As to conditions: 20 min, n = 10; for Linear correlation coefficient, Carbofuran metabolic pathway: 50 μM furathiocarb. Here is the method: A set of ten livers was used to assess the metabolism of furathiocarb in the individual livers as well as to correlate the activities with a model CYP substrate. (Detailed information is available as Supplementary materials).
as §1
Metabolites of bupropion, amodiaquine, tolbutamide, omeprazole, dextromethorphan, chlorzoxazone, and midazolam were analyzed by a Shimadzu VP series high-performance liquid chromatograph with an autoinjector (Shimadzu, Kyoto, Japan). The analytical column was a Waters Symmetry C18 (3.9 mm x 150 mm, particle size of 5 µm) together with a Lichospher 100 RP-18 4.0 mm x 4.0 mm precolumn (Merck, Darmstadt, Germany). Chromatographic methods were isocratic, except in the case of omeprazole when a linear gradient elution from 15 to 35% A in 8 min was used. Mobile phases were pumped at a flow rate of 1.0 ml/min. The injection volume used was 20 µl. The concentrations of metabolites were calculated from peak height ratios of the UV chromatograms on the basis of standard calibration curves of authentic metabolites. Metabolites of ethoxyresorufin, ethoxycoumarin, coumarin, and pentoxyresorufin were analyzed fluorometrically. […] Fresh […] dilutions from stock solution of DMSO were used for each assay. The final amount of DMSO was 1% in incubation mixtures. For chlorzoxazone 6-hydroxylation the solvent was evaporated because of the potent inhibition effect of DMSO on CYP2E1, and the residue was diluted with 10 µl of lipid solution. Lipid solution was prepared by adding 8 µl of dimethyldioctadecylammonium-bromide in chloroform (100 mg/ml) to 200 µl L-α-phosphatidylethanolamine dioleyl [C18:1 (cis)-9] in chloroform. This mixture was evaporated with a stream of nitrogen flow, 2 ml of water was added, and the final mixture was sonicated (Branson Sonifier 250 GWB) on an ice bath for 10 min by using 50% power.
Cytochrome P450 enzyme activity characterizations as well as incubations with individual human hepatic microsomes were performed at the same time. A bank of 10 livers was used to assess the metabolism of furathiocarb in individual livers as well as to correlate the activities with model P450 substrate activities. A correlation was performed between the formation of furathiocarb metabolites and each CYP activity across the human liver set. For all data points the mean of duplicate incubations were used. […] Bivariate linear Pearson’s correlation coefficients (r) were calculated between metabolite formations and model activities in livers. […]

In the case of `CCCCOC(=O)N(C)SN(C)C(=O)Oc1cccc2c1OC(C)(C)C2` [furathiocarb, Furathiocarb], the “Phase II metabolites” value in data set [1] is listed as “no phase II metabolites were detected”. For the same compound, the “Concentrations in the blood (average)” value in data set [2] (n = 7) is 3.6 µg/mL. For the same compound, the “Concentrations in the blood (range)” value in data set [2] is 0.1 to 21.6 µg/mL. In addition, the half-maximal inhibitory concentration (IC50) in data set [3] lay in the range of 16.5 to 18.5 µM. Besides, the “Linear correlation coefficient, Carbofuran metabolic pathway” value in data set [4] (vs CYP1A1/2 7-Ethoxyresorufin-O-deethylation (EROD)) was 0.2493; in data set [4] (vs CYP2A6 Coumarin-7-hydroxylation (OH-COU)), 0.2303; in data set [4] (vs CYP2B6 Bupropion hydroxylation (OH-BUP)), 0.0023; in data set [4] (vs CYP2C8 Amodiaquine-desethylation (deEt-AMO)), 0.1814; in data set [4] (vs CYP2C9 Tolbutamide hydroxylation (OH-TOL)), 0.1126; in data set [4] (vs CYP2C19 Omeprazole-5-hydroxylation (5-OH-OME), P < 0.0001), 0.9074 **. Moreover, the “Linear correlation coefficient, Carbofuran metabolic pathway” value is given as 0.0059 in data set [4] (vs CYP2D6 Dextromethorphan-O-desmethylation (O-dem-DEX)); 0.1101 in data set [4] (vs CYP2E1 Chlorzoxazone-6-hydroxylation (OH-CLZ)); 0.8513 * in data set [4] (vs CYP3A4 Midazolam-1'-hydroxylation (1-OH-MDZ), P = 0.0001); 0.9632 ** in data set [4] (vs CYP3A4 Omeprazole sulfoxidation (SO2-OME), P < 0.0001). Also, the “Linear correlation coefficient, -OH/SO4 furathiocarb Metabolite B” value in data set [4] (vs CYP2A6 Coumarin-7-hydroxylation (OH-COU), 100 μM furathiocarb) was found to be 0.1259; in data set [4] (vs CYP3A4 Midazolam-1'-hydroxylation (1-OH-MDZ), 100 μM furathiocarb) it was 0.3282; in data set [4] (vs CYP3A4 Omeprazole sulfoxidation (SO2-OME), 100 μM furathiocarb), 0.2793. Moreover, the “Linear correlation coefficient, -OH/SO4 furathiocarb Metabolite A” value in data set [4] (vs CYP2C19 Omeprazole-5-hydroxylation (5-OH-OME), 100 μM furathiocarb) came out at 0.4683.
